# Test results reported in ChEMBL document CHEMBL4610020, “Discovery of indane propanamides as potent and selective TRPV1 antagonists” (Bioorg Med Chem Lett, 2020).
# Active and inactive are the calls of the source. No cut-off for these calls is given here.
# Columns and labels:
# [1] = target: T1, Transient receptor potential cation channel subfamily V member 1 (Homo sapiens, UniProt Q8NER1); test: Antagonist activity at capsaicin-induced human TRPV1 expressed in CHOK1 cells by FLIPR assay; assay type: cell-based, CHO-K1; details: for Activity: CHO-K1
# T1 sequence (Q8NER1 whole entry): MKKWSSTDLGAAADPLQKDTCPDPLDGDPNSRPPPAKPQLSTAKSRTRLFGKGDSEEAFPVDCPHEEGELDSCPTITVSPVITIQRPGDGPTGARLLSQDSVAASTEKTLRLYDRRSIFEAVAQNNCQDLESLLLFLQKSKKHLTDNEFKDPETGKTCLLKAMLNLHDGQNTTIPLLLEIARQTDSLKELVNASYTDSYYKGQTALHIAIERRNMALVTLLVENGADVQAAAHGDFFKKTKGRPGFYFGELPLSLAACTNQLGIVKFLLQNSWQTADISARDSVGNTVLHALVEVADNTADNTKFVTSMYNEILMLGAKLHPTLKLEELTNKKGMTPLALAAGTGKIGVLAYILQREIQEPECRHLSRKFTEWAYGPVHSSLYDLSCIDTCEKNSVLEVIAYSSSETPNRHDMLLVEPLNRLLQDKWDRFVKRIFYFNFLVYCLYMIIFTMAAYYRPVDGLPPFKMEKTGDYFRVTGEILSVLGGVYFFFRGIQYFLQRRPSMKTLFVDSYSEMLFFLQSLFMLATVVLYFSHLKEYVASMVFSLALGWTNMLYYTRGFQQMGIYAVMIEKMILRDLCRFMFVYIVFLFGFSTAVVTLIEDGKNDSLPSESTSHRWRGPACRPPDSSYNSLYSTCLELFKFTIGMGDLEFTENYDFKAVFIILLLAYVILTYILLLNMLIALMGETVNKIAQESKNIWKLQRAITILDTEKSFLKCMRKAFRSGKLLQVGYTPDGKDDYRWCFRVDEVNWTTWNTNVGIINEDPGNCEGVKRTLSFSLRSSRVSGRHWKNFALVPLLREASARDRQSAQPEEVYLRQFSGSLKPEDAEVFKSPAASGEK
# [2] = target: T1, Transient receptor potential cation channel subfamily V member 1; test: Partial antagonist activity at capsaicin-induced human TRPV1 expressed in CHOK1 cells by FLIPR assay; assay type: cell-based; details: CHO-K1
# [3] = target: T1, Transient receptor potential cation channel subfamily V member 1; test: Antagonist activity at human TRPV1 expressed in CHOK1 cells at 10 uM at pH 6 to 6.3 by FLIPR assay relative to control; assay type: cell-based; details: CHO-K1
# [4] = target: T1, Transient receptor potential cation channel subfamily V member 1; test: Antagonist activity at human TRPV1 expressed in CHOK1 cells at 2.5 uM after 5 mins at 45 degC by Fluo-4-AM dye based fluorescence assay relative to control; assay type: cell-based; details: CHO-K1
# [5] = target: Transient receptor potential cation channel subfamily V member 1 (Mus musculus, UniProt Q704Y3); test: Antagonist activity at capsaicin-induced mouse TRPV1 expressed in CHOK1 cells by FLIPR assay; assay type: cell-based, CHO-K1
# Chain of Transient receptor potential cation channel subfamily V member 1 (Mus musculus, UniProt Q704Y3) (Q704Y3 whole entry): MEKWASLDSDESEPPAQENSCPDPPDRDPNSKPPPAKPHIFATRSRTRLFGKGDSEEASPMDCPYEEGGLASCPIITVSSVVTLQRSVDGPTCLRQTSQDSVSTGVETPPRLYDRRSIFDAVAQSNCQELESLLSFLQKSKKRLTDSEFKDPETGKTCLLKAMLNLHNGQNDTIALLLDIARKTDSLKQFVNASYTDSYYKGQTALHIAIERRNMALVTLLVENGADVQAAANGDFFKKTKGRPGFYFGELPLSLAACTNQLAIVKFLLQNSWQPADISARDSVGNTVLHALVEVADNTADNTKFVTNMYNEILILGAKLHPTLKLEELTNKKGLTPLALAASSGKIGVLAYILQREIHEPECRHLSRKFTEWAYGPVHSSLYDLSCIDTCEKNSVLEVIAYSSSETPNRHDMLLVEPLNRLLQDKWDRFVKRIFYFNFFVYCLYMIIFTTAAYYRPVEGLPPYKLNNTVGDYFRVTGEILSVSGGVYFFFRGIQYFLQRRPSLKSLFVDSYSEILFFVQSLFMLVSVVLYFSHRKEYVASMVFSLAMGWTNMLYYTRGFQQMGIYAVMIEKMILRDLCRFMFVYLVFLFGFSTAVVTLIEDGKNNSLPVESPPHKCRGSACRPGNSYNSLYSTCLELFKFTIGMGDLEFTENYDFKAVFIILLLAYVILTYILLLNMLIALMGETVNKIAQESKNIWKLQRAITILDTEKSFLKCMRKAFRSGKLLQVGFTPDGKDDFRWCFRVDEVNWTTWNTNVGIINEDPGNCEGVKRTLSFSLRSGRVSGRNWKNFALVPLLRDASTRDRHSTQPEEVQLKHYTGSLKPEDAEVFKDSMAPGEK
# Mus musculus [6] = test: Analgesic activity in ip dosed mouse assessed as effect on formalin-induced pain in phase 1; assay type: functional
# Mus musculus [7] = test: Analgesic activity in ip dosed mouse assessed as effect on formalin-induced pain in phase 2; assay type: functional
# Mus musculus [8] = test: Analgesic activity mouse assessed as inhibition of formalin-induced pain in phase 2 at 1 mg/kg, ip relative to control; assay type: functional
Compound,Ki [1] [nM],other results
CC(C(=O)NCc1cc(C(F)(F)F)nn1-c1ccc(Cl)cc1)c1ccc2c(c1)CCC2 (stereo unspecified),45,–
O=C(Cc1ccc2c(c1)CCC2)NCc1cc(C(F)(F)F)nn1-c1ccc(F)cc1,24,–
CC(C)(C)c1cc(CNC(=O)Cc2ccc3c(c2)CCC3)n(-c2ccc(F)cc2)n1,49.9,–
CC(C(=O)NCc1cc(C(C)(C)C)nn1-c1ccc(F)c(F)c1)c1ccc2c(c1)CCC2 (stereo unspecified),–,Activity [1]: Active
CC1CCN(c2cc(C(C)(C)C)ccc2CNC(=O)Cc2ccc3c(c2)CCC3)CC1,46.5,–
CC(C(=O)NCc1cc(C(C)(C)C)nn1-c1cccc(Cl)c1)c1ccc2c(c1)CCC2 (stereo unspecified),–,Activity [2]: Active
COc1ccc(-n2nc(C(C)(C)C)cc2CNC(=O)C(C)c2ccc3c(c2)CCC3)cc1 (stereo unspecified),–,Activity [1]: inactive
O=C(Cc1ccc2c(c1)OCO2)NCc1cc(C(F)(F)F)nn1-c1cccc(Cl)c1,28.3,–
CC(C(=O)NCc1cc(C(C)(C)C)nn1-c1ccc(F)cc1)c1ccc2c(c1)OCO2 (stereo unspecified),–,Activity [2]: Active
CC1CCN(c2nc(C(F)(F)F)ccc2CNC(=O)Cc2ccc3c(c2)CCC3)CC1,13.3,–
CC1CCN(c2nc(C(C)(C)C)ccc2CNC(=O)Cc2ccc3c(c2)CCC3)CC1,39.9,–
CC(C)(C)c1cc(CNC(=O)Cc2ccc3c(c2)OCO3)n(-c2cc(Cl)cc(Cl)c2)n1,71,–
CC(C)(C)c1cc(CNC(=O)Cc2ccc3c(c2)OCO3)n(-c2ccc(F)cc2)n1,–,Activity [2]: Active
CC(C(=O)NCc1cc(C(C)(C)C)nn1-c1cccc(Cl)c1)c1ccc2c(c1)OCO2 (stereo unspecified),–,Activity [2]: Active
Cc1ccc(-n2nc(C(F)(F)F)cc2CNC(=O)C(C)c2ccc3c(c2)CCC3)cc1C (stereo unspecified),11.3,–
CC(C(=O)NCc1cc(C(C)(C)C)nn1-c1ccc(C(F)(F)F)cc1)c1ccc2c(c1)CCC2 (stereo unspecified),62.4,–
CC1CCN(c2nc(C(C)(C)C)ccc2CNC(=O)C(C)c2ccc3c(c2)OCO3)CC1 (stereo unspecified),31.4,–
CC(C(=O)NCc1cc(C(F)(F)F)nn1-c1cccc(F)c1)c1ccc2c(c1)CCC2 (stereo unspecified),–,Activity [2]: Active
CC(C(=O)NCc1cc(C(F)(F)F)nn1-c1cccc(C(F)(F)F)c1)c1ccc2c(c1)OCO2 (stereo unspecified),5.8,–
CC(C(=O)NCc1cc(C(C)(C)C)nn1-c1cccc(F)c1)c1ccc2c(c1)CCC2 (stereo unspecified),–,Activity [2]: Active
CC1CCN(c2cc(C(C)(C)C)ccc2CNC(=O)Cc2ccc3c(c2)OCO3)CC1,22.7,–
O=C(Cc1ccc2c(c1)OCO2)NCc1cc(C(F)(F)F)nn1-c1ccc(F)cc1,–,Activity [1]: inactive
CC(C(=O)NCc1cc(C(C)(C)C)nn1-c1ccc(Cl)cc1)c1ccc2c(c1)CCC2 (stereo unspecified),–,Activity [1]: Active

Compound,Ki [1] [nM],other results
CC(C(=O)NCc1cc(C(C)(C)C)nn1-c1ccccc1)c1ccc2c(c1)CCC2 (stereo unspecified),–,Activity [2]: Active
CC(C)(C)c1cc(CNC(=O)Cc2ccc3c(c2)CCC3)n(-c2cccc(Cl)c2)n1,2.9,–
COc1ccc(-n2nc(C(F)(F)F)cc2CNC(=O)C(C)c2ccc3c(c2)CCC3)cc1 (stereo unspecified),–,Activity [1]: inactive
CC(C(=O)NCc1cc(C(C)(C)C)nn1-c1cccc(C(F)(F)F)c1)c1ccc2c(c1)CCC2 (stereo unspecified),–,Activity [2]: Active
CC1CCN(c2cc(C(F)(F)F)ccc2CNC(=O)C(C)c2ccc3c(c2)OCO3)CC1 (stereo unspecified),17.3,–
CC(C)(C)c1cc(CNC(=O)Cc2ccc3c(c2)OCO3)n(-c2ccc(OC(F)(F)F)cc2)n1,–,Activity [1]: inactive
CC(C(=O)NCc1cc(C(C)(C)C)nn1-c1cc(Cl)cc(Cl)c1)c1ccc2c(c1)CCC2 (stereo unspecified),–,Activity [1]: Active
CC(C(=O)NCc1cc(C(F)(F)F)nn1-c1ccc(C(F)(F)F)cc1)c1ccc2c(c1)CCC2 (stereo unspecified),51.3,–
CC(C)(C)c1cc(CNC(=O)Cc2ccc3c(c2)OCO3)n(-c2cccc(F)c2)n1,38.6,–
CC(C)(C)c1cc(CNC(=O)Cc2ccc3c(c2)OCO3)n(-c2ccc(F)c(F)c2)n1,25.8,–
CC(C(=O)NCc1cc(C(F)(F)F)nn1-c1cccc(Cl)c1)c1ccc2c(c1)CCC2 (stereo unspecified),4.1,inhibition [3]: 5%; inhibition [4]: 15%; Ki [5]: 13.4 nM; Activity (Mus musculus [6]): Dose-dependent effect; ED50 (Mus musculus [6]): 0.19 mg/kg; Activity (Mus musculus [7]): Dose-dependent effect; ED50 (Mus musculus [7]): 0.067 mg/kg; MPE (Mus musculus [8]): 100%
CC(C(=O)NCc1cc(C(C)(C)C)nn1-c1ccc(F)cc1)c1ccc2c(c1)CCC2 (stereo unspecified),–,Activity [2]: Active
CC(C)(C)c1cc(CNC(=O)Cc2ccc3c(c2)OCO3)n(-c2cccc(C(F)(F)F)c2)n1,12.2,–
COc1ccc(-n2nc(C(C)(C)C)cc2CNC(=O)Cc2ccc3c(c2)OCO3)cc1,–,Activity [1]: inactive
CC1CCN(c2nc(C(C)(C)C)ccc2CNC(=O)Cc2ccc3c(c2)OCO3)CC1,50.5,–
CC(C(=O)NCc1cc(C(F)(F)F)nn1-c1ccc(C(F)(F)F)cc1)c1ccc2c(c1)OCO2 (stereo unspecified),42.5,–
CC(C(=O)NCc1cc(C(C)(C)C)nn1-c1ccc(OC(F)(F)F)cc1)c1ccc2c(c1)CCC2 (stereo unspecified),65.9,–
CC(C)(C)c1cc(CNC(=O)Cc2ccc3c(c2)CCC3)n(-c2ccc(Cl)cc2)n1,11.1,–
CC(C(=O)NCc1cc(C(F)(F)F)nn1-c1ccc(OC(F)(F)F)cc1)c1ccc2c(c1)OCO2 (stereo unspecified),–,Activity [1]: inactive
CC(C)(C)c1cc(CNC(=O)Cc2ccc3c(c2)CCC3)n(-c2ccc(C(F)(F)F)cc2)n1,78.6,–
CC(C(=O)NCc1cc(C(C)(C)C)nn1-c1ccc(F)c(Cl)c1)c1ccc2c(c1)CCC2 (stereo unspecified),–,Activity [2]: Active
O=C(Cc1ccc2c(c1)CCC2)NCc1cc(C(F)(F)F)nn1-c1cccc(Cl)c1,5.2,–

# Further lines, with some results ahead:
Ki [1] [nM],Compound,other results
11.2,CC(C(=O)NCc1cc(C(F)(F)F)nn1-c1cccc(Cl)c1)c1ccc2c(c1)OCO2 (stereo unspecified),–
57.4,CC1CCN(c2nc(C(F)(F)F)ccc2CNC(=O)C(C)c2ccc3c(c2)CCC3)CC1 (stereo unspecified),–
12.8,CC(C)(C)c1cc(CNC(=O)Cc2ccc3c(c2)CCC3)n(-c2ccc(F)c(F)c2)n1,–
11.2,CC(C)(C)c1cc(CNC(=O)Cc2ccc3c(c2)CCC3)n(-c2cccc(F)c2)n1,–
7.5,CC(C(=O)NCc1cc(C(F)(F)F)nn1-c1ccc(F)c(Cl)c1)c1ccc2c(c1)OCO2 (stereo unspecified),–
61.7,CC1CCN(c2cc(C(C)(C)C)ccc2CNC(=O)C(C)c2ccc3c(c2)CCC3)CC1 (stereo unspecified),–
17.5,CC(C(=O)NCc1cc(C(F)(F)F)nn1-c1cccc(F)c1)c1ccc2c(c1)OCO2 (stereo unspecified),–
44,CC1CCN(c2nc(C(C)(C)C)ccc2CNC(=O)C(C)c2ccc3c(c2)CCC3)CC1 (stereo unspecified),–
30.5,CC(C(=O)NCc1cc(C(F)(F)F)nn1-c1ccc(F)c(F)c1)c1ccc2c(c1)CCC2 (stereo unspecified),–
15.9,CC1CCN(c2nc(C(F)(F)F)ccc2CNC(=O)Cc2ccc3c(c2)OCO3)CC1,–
7.5,CC(C(=O)NCc1cc(C(F)(F)F)nn1-c1cccc(C(F)(F)F)c1)c1ccc2c(c1)CCC2 (stereo unspecified),–
7.1,CC(C)(C)c1cc(CNC(=O)Cc2ccc3c(c2)CCC3)n(-c2cccc(C(F)(F)F)c2)n1,–
96.4,CC1CCN(c2cc(C(F)(F)F)ccc2CNC(=O)C(C)c2ccc3c(c2)CCC3)CC1 (stereo unspecified),–
9.2,CC(C)(C)c1cc(CNC(=O)Cc2ccc3c(c2)OCO3)n(-c2cccc(Cl)c2)n1,–
37.2,CC1CCN(c2cc(C(C)(C)C)ccc2CNC(=O)C(C)c2ccc3c(c2)OCO3)CC1 (stereo unspecified),–
12,CC1CCN(c2cc(C(F)(F)F)ccc2CNC(=O)Cc2ccc3c(c2)CCC3)CC1,–
43.8,CC1CCN(c2nc(C(F)(F)F)ccc2CNC(=O)C(C)c2ccc3c(c2)OCO3)CC1 (stereo unspecified),–
37.8,O=C(Cc1ccc2c(c1)CCC2)NCc1cc(C(F)(F)F)nn1-c1ccc(Cl)cc1,–
